# Assay results: patent US9505771B2, “Stable micronised monoclin form of asenapine maleate and its synthesis” (Laboratories Lesvi S.L., priority 2011, dated 2016)
# Counter-ions that a name gives are not always drawn.
# Columns and labels:
# [1] = PXRD determination of orthorhombic form content in the micronised product; format: physicochemical; settings: for orthorhombic form contained in the micronised product, as determined by PXRD / polymorphic purity (monoclinic form) of the micronised product: after micronisation; for % of orthorhombic form in the micronised product: directly after micronisation, before storage
# Method: (§1) Powder X-Ray Diffraction (PXRD) patterns were acquired on a D8 Advance Series 2Theta/Theta powder diffraction system using CuKα-radiation in transmission geometry. The system was equipped with a VANTEC-1 single photon counting PSD, a Germanium monochromator, a ninety positions auto changer sample stage, fixed divergence slits and radial soller. Programs used: Data collection with DIFFRAC plus XRD Commander V.2.5.1 and evaluation with EVA V.12.0. The samples were prepared and placed in standard sample holders using two foils of polyacetate. Five hours scans in a range from 8° to 20° in 2θ were carried out.
# [2] = Stability assays of the micronised samples (polymorphic stability on storage, PXRD); format: physicochemical; settings: transparent and opaque vacuum containers; for % of orthorhombic form after 1 months / % of orthorhombic form after 3 months: 40° C.-75% RH; for % of orthorhombic form after 2 months: 25° C.-60% RH
# Method: During the storage period of 1 month, 2 months or 3 months, a temperature of 25° C. and a relative humidity of 60%, or a temperature of 40° C. and a relative humidity of 75%, may be used. For such tests, the samples may be placed into either or both of transparent and opaque vacuum containers. […] The monoclinic and orthorhombic forms of asenapine maleate were characterised, and thus distinguished, by the powder X-ray diffraction pattern (PXRD) of the asenapine maleate, as described in EP 1710245.
# as §1
# Stability assays of the new stable monoclinic form of asenapine maleate obtained as described above were performed after 1 month, 2 months and 3 months. The samples were placed into two different types of containers, transparent and opaque vacuum containers. The stability tests were carried out at two different storage conditions, 25° C. and 60% relative humidity (RH), and at 40° C. and 75% RH.
SMILES,"orthorhombic form contained in the micronised product, as determined by PXRD [1]",% of orthorhombic form in the micronised product [1] [%],% of orthorhombic form after 1 months [2] [%],% of orthorhombic form after 3 months [2] [%],% of orthorhombic form after 2 months [2] [%],polymorphic purity (monoclinic form) of the micronised product [1] [% by weight]
"CN1C[C@@H]2c3ccccc3Oc3ccc(Cl)cc3[C@H]2C1 (racemic) [Example 2, asenapine maleate]",about 5 % by weight,5,9,13,–,–
"CN1C[C@@H]2c3ccccc3Oc3ccc(Cl)cc3[C@H]2C1 (racemic) [Example 3, asenapine maleate]",about 3 % by weight,3,5,8,–,–
"CN1C[C@@H]2c3ccccc3Oc3ccc(Cl)cc3[C@H]2C1 (racemic) [Example 4, asenapine maleate]",less than 1 % by weight,<1,–,–,–,> 99
"CN1C[C@@H]2c3ccccc3Oc3ccc(Cl)cc3[C@H]2C1 (racemic) [Example 5, asenapine maleate]",less than 1 % by weight,<1,–,–,–,> 99
"CN1C[C@@H]2c3ccccc3Oc3ccc(Cl)cc3[C@H]2C1 (racemic) [Example 6, asenapine maleate]",less than 1 % by weight,–,–,–,–,> 99

# More lines, now with the values ahead:
"orthorhombic form contained in the micronised product, as determined by PXRD [1]",% of orthorhombic form in the micronised product [1] [%],% of orthorhombic form after 1 months [2] [%],% of orthorhombic form after 3 months [2] [%],% of orthorhombic form after 2 months [2] [%],polymorphic purity (monoclinic form) of the micronised product [1] [% by weight],SMILES
–,<1,8,12,5,–,"CN1C[C@@H]2c3ccccc3Oc3ccc(Cl)cc3[C@H]2C1 (racemic) [Example 2.1, asenapine maleate]"
–,<1,4,7,3,–,"CN1C[C@@H]2c3ccccc3Oc3ccc(Cl)cc3[C@H]2C1 (racemic) [Example 3.1, asenapine maleate]"
